According to patent US4665169A, “Carbapenem antibiotics” (Bristol-Myers Company, priority 1985, dated 1987):
Converted amounts (≈) assume the structure as drawn. Like-named read-outs stand apart in the source and are kept apart here.

Assays:
S. pneumoniae A-9585 = assay: In vitro antibacterial activity, MIC by tube dilution; assay type: cell-based; settings: Streptococcus pneumoniae, overnight 37° C., Nutrient Broth
S. pyogenes A-9604 = assay: as above; assay type: cell-based; settings: overnight 37° C., Nutrient Broth
S. faecalis A20688 = assay: as above; assay type: cell-based; settings: overnight 37° C., Nutrient Broth
S. aureus A-9537 [1] = assay: as above; assay type: cell-based; settings: overnight 37° C., Nutrient Broth
S. aureus A-9537 [2] = assay: In vitro antibacterial activity, MIC by tube dilution, 50% serum; assay type: cell-based
[3] = system: S. aureus (Penicillin-resistant) A-9606; assay: In vitro antibacterial activity, MIC by tube dilution; assay type: cell-based; settings: Staphylococcus aureus, Nutrient Broth
E. coli A15119 = assay: as above; assay type: cell-based; settings: Escherichia coli, overnight 37° C., Nutrient Broth
E. coli A20341-1 = assay: as above; assay type: cell-based; settings: Escherichia coli, overnight 37° C., Nutrient Broth
K. pneumoniae A-9664 = assay: as above; assay type: cell-based; settings: Klebsiella pneumoniae, A9664; Lot# 1794-20; overnight 37° C., Nutrient Broth
K. pneumoniae A20468 = assay: as above; assay type: cell-based; settings: Klebsiella pneumoniae, A20468, Lot# 1794-27; overnight 37° C., Nutrient Broth
E. cloacae A-9659 = assay: as above; assay type: cell-based; settings: Enterobacter cloacae, A9659, Lot# 1794-27; overnight 37° C., Nutrient Broth
E. cloacae A-9656 = assay: as above; assay type: cell-based; settings: Enterobacter cloacae, A9656, Lot# 1794-27; overnight 37° C., Nutrient Broth
P. mirabilis A-9900 = assay: as above; assay type: cell-based; settings: overnight 37° C., Nutrient Broth
P. vulgaris A21559 = assay: as above; assay type: cell-based; settings: overnight 37° C., Nutrient Broth
S. marcescens A20019 = assay: as above; assay type: cell-based; settings: overnight 37° C., Nutrient Broth
P. aeruginosa A-9843A = assay: as above; assay type: cell-based; settings: overnight 37° C., Nutrient Broth
[4] = Blood levels in mice after intramuscular dosing; assay type: in vivo; settings: mouse, im, 20 mg/kg; for AUC / Cmax / Tmax / half-life: 20 mg/kg i.m.; for concentration at 10 min: 10 min after 20 mg/kg i.m.; for concentration at 20 min: 20 min after 20 mg/kg i.m.; for concentration at 0.5 h: 30 min after 20 mg/kg i.m.; for concentration at 0.75 h: 45 min after 20 mg/kg i.m.; for concentration at 1 h: 60 min after 20 mg/kg i.m.; for concentration at 1.5 h: 90 min after 20 mg/kg i.m.
Procedure: For the determination of blood levels, two groups of mice were used. Each group consisted of four 20 g mice. Prior to dosing (5-10 min.) one of the groups received an i.p. injection of a dipeptidase inhibitor (BCH-1) at a level of 10 mg/kg.

Urinary recovery in mice = assay type: in vivo; settings: mouse, urine; for dose excreted at 3 h: 0-3 hr.
Procedure: Two groups of mice were used for the urinary recovery evaluation. Each group consisted of four 20 g mice. Prior to dosing (5-10 minutes) one of the groups received an i.p. injestion of a dipeptidase inhibitor (BCH-1) at a level of 10 mg/kg. Following dosing, animals were placed in individual metabolism cages and the urine collected over ice at intervals of 0-3 and 3-6 hr. Animals were fasted overnight and a dextrose-amino acid solution was available ad libitum starting one hour before drug administration through six hours of urine collection. Urine samples were assayed for biological activity using sensitive assay plates containing B. subtilis ATCC 6633.

P. aeruginosa A9843a = assay: In vivo activity, 50% protective dose in infected mice; settings: Pseudomonas aeruginosa, im, 120 h, i.m., immediately and 2 hour post-infection, deaths over five days, read-out: PD50 (50% protective dose)
Procedure: BHI broth (9.0 ml) was inoculated with a loopful of thawed stock suspension of P. aeruginosa A9843a and incubated for 18 hr at 37° C. A volume of 0.5 ml of the 18 hr culture was added to 20 ml BHI broth and incubated for 3 hr. with constant shaking at 37° C. A 1/10,000 dilution of the shaker culture was prepared in 0.4% hog gastric mucin. Mice were infected by the intraperitoneal route with 0.5 ml of the bacterial suspension (corresponding to 6.0×10^4 viable cells/mouse).
Each mouse received a volume of 0.2 ml intramuscularly. Deaths were recorded over a period of five days following infection at which time the PD50 for the compound was determined by estimation of the 50% end-point using the probit analysis plot.

[5] = system: P. aeruginosa (Carbenicillin-resistant) A21213; settings: Lot# 1794-27, overnight 37° C., Nutrient Broth
[6] = system: P. aeruginosa (Carbenicillin-resistant) A21213; assay: microbe, parasite or virus in culture; settings: Pseudomonas aeruginosa
[7] = Half-life in pH 7.4 biological buffer; assay type: physicochemical; settings: 37° C.
Procedure: To a cooled (5° C.) solution of (5R,6S)p-nitrobenzyl-6-(1^1 R-hydroxyethyl)-4R-methyl-3-(1-methyl-4-thiatetrahydrothiopyranium)-7-oxo- 1-azabicyclo[3.2.0]hept-2-ene-2-carboxyl-diphenylphosphate (2.40 g, 3.23 mmol) in tetrahydrofuran (240 mL) and 0.05M pH 7.0 phosphate buffer (240 mL) was added ether (240 mL) and 10% Pd/C (2.4 g). The mixture was hydrogenated in a Paar apparatus at 45 psi H2 at 15° C. for 1 hour. The solution was then filtered through glass fiber paper and the catalyst was washed with water (25 mL). The aqueous phase of the filtrate was washed with ether (2×100 mL) and purged under vacuum to remove any trace of organic solvent. The product was purified by reversed phase chromatography on μBondapak C-18 silica gel (100 g) using mixtures of acetonitrile-water as the eluent (10% CH3 CN--H2 O, quantity mL; 0%, 500 mL; 2%, 500 mL; 4%, 500 mL; 10%, 250 mL) to give 1.08 g of impure proudct. After lyophilization, this product and a 0.020 g sample from another experiment (starting from 0.067 mmol of the ester) was purified by hplc (hplc data re: C18 μBondapak, using 5% CH3 CN--H2 O at 4 mL/min, R. I. detector) to give 328 mg. […]

[8] = system: various Pseudomonas species; settings: prior art statement; cited from earlier work

C[C@@H](O)[C@H]1C(=O)N2C(C(=O)[O-])=C(SC3CC[S+](C)CC3)C[C@H]12 (some centres unmarked) [Example 1]
MIC (S. pneumoniae A-9585; A9585, Lot# 1794-20): 0.001 µg/mL (≈ 0.00291 µM)
MIC (S. pneumoniae A-9585; A9585, Lot# 1794-27): 0.002 µg/mL (≈ 0.00582 µM)
MIC (S. pyogenes A-9604; Lot# 1794-27): 0.004 µg/mL (≈ 0.0116 µM)
MIC (S. pyogenes A-9604; Streptococcus pyogenes, A9604, Lot# 1794-20, read-out: MIC): 0.004 µg/mL (≈ 0.0116 µM)
MIC (S. faecalis A20688; Enterococcus faecalis, A20688, Lot# 1794-20, read-out: MIC): 0.5 µg/mL (≈ 1.46 µM)
MIC (S. faecalis A20688; Lot# 1794-27): 0.5 µg/mL (≈ 1.46 µM)
MIC (S. aureus A-9537 [1]; Lot# 1794-27): 0.008 µg/mL (≈ 0.0233 µM)
MIC (S. aureus A-9537 [1]; Staphylococcus aureus, A9537, Lot# 1794-20, read-out: MIC): 0.008 µg/mL (≈ 0.0233 µM)
MIC (S. aureus A-9537 [2]; Lot# 1794-27, overnight 37° C.): 0.016 µg/mL (≈ 0.0466 µM)
MIC (S. aureus A-9537 [2]; Staphylococcus aureus, A9537, Lot# 1794-20, overnight 37° C., read-out: MIC): 0.016 µg/mL (≈ 0.0466 µM)
MIC ([3]; Lot# 1794-20, overnight 37° C.): 0.016 µg/mL (≈ 0.0466 µM)
MIC ([3]; Lot# 1794-27, overnight 37° C.): 0.03 µg/mL (≈ 0.0873 µM)
MIC (E. coli A15119; A15119, Lot# 1794-20): 0.008 µg/mL (≈ 0.0233 µM)
MIC (E. coli A15119; A15119, Lot# 1794-27): 0.016 µg/mL (≈ 0.0466 µM)
MIC (E. coli A20341-1; A203411, Lot# 1794-20): 0.016 µg/mL (≈ 0.0466 µM)
MIC (E. coli A20341-1; A203411, Lot# 1794-27): 0.03 µg/mL (≈ 0.0873 µM)
MIC (K. pneumoniae A-9664): 0.03 µg/mL (≈ 0.0873 µM)
MIC (K. pneumoniae A20468): 0.25 µg/mL (≈ 0.728 µM)
MIC (E. cloacae A-9659): 0.25 µg/mL (≈ 0.728 µM)
MIC (E. cloacae A-9656): 0.25 µg/mL (≈ 0.728 µM)
MIC (P. mirabilis A-9900; Lot# 1794-27): 0.016 µg/mL (≈ 0.0466 µM)
MIC (P. mirabilis A-9900; Proteus mirabilis, A9900, Lot# 1794-20, read-out: MIC): 0.016 µg/mL (≈ 0.0466 µM)
MIC (P. vulgaris A21559; Lot# 1794-27): 0.016 µg/mL (≈ 0.0466 µM)
MIC (P. vulgaris A21559; Proteus vulgaris, A21559, Lot# 1794-20, read-out: MIC): 0.016 µg/mL (≈ 0.0466 µM)
MIC (S. marcescens A20019; Lot# 1794-27): 0.03 µg/mL (≈ 0.0873 µM)
MIC (S. marcescens A20019; Serratia marcescens, A20019, Lot# 1794-20, read-out: MIC): 0.03 µg/mL (≈ 0.0873 µM)
MIC (P. aeruginosa A-9843A; Lot# 1794-27): 2 µg/mL (≈ 5.82 µM)
MIC (P. aeruginosa A-9843A; Pseudomonas aeruginosa, A9843A, Lot# 1794-20, read-out: MIC): 2 µg/mL (≈ 5.82 µM)
AUC ([4]; with BCH-1 10 mg/kg i.p.): 10900 ng·h/mL
Cmax ([4]; with BCH-1 10 mg/kg i.p.): 16100 ng/mL
Tmax ([4]; with BCH-1 10 mg/kg i.p.): 20 min
half-life ([4]; with BCH-1 10 mg/kg i.p.): 10 min
AUC ([4]; without BCH-1): 6800 ng·h/mL
Cmax ([4]; without BCH-1): 15400 ng/mL
Tmax ([4]; without BCH-1): 10 min
half-life ([4]; without BCH-1): 9 min
concentration at 10 min ([4]; with BCH-1 10 mg/kg i.p.): 15400 ng/mL
concentration at 10 min ([4]; without BCH-1): 15400 ng/mL
concentration at 20 min ([4]; with BCH-1 10 mg/kg i.p.): 16100 ng/mL
concentration at 20 min ([4]; without BCH-1): 11400 ng/mL
concentration at 0.5 h ([4]; with BCH-1 10 mg/kg i.p.): 12600 ng/mL
concentration at 0.5 h ([4]; without BCH-1): 7200 ng/mL
concentration at 0.75 h ([4]; with BCH-1 10 mg/kg i.p.): 7400 ng/mL
concentration at 0.75 h ([4]; without BCH-1): 2900 ng/mL
concentration at 1 h ([4]; with BCH-1 10 mg/kg i.p.): 3000 ng/mL
concentration at 1 h ([4]; without BCH-1): 700 ng/mL
concentration at 1.5 h ([4]; with BCH-1 10 mg/kg i.p.): 300 ng/mL
concentration at 1.5 h ([4]; without BCH-1): 300 ng/mL
dose excreted at 3 h (Urinary recovery in mice; with BCH-1 10 mg/kg i.p., read-out: Percent Recovered (urine)): 67%
dose excreted at 3 h (Urinary recovery in mice; without BCH-1, read-out: Percent Recovered (urine)): 44%
dose excreted at 6 h (Urinary recovery in mice; 0-6 hr., with BCH-1 10 mg/kg i.p., read-out: Percent Recovered (urine)): 67.1%
dose excreted at 6 h (Urinary recovery in mice; 0-6 hr., without BCH-1, read-out: Percent Recovered (urine)): 44.2%
dose excreted at 6 h (Urinary recovery in mice; 3-6 hr., with BCH-1 10 mg/kg i.p., read-out: Percent Recovered (urine)): 0.1%
dose excreted at 6 h (Urinary recovery in mice; 3-6 hr., without BCH-1, read-out: Percent Recovered (urine)): 0.2%
ED50 (P. aeruginosa A9843a): 0.71 mg/kg
MIC [5]: 0.25 µg/mL (≈ 0.728 µM)
MIC [6]: 0.25 µg/mL (≈ 0.728 µM)

C[C@@H](O)[C@H]1C(=O)N2C(C(=O)[O-])=C(SC3CC[S+](C)CC3)[C@H](C)[C@H]12 (stereo partly drawn) [Example 2, (5R,6S)-6-(1R-hydroxyethyl)-4R-methyl-3-(1-methyl-4-thiatetrahydrothiopyranium)-7-oxo-1-azabicyclo[3.2.0]-hept-2-ene-2-carboxylate]
half-life [7]: 1800 min

C[C@@H](O)[C@H]1C(=O)N2C(C(=O)O)=C(SCCN)C[C@H]12 [Thienamycin, thienamycin]
activity against various Pseudomonas species [8]: notable activity
